Data reported in patent US10577315B2, “Compositions and methods for treatment of prostate carcinoma” (Pellficure Pharmaceuticals, Inc., priority 2014, dated 2020).

Test system: PTEN-P2/GFP prostate cancer cells
Assay: Effect of 1,4-naphthoquinone analogs on PTEN-P2/GFP cell proliferation (WST-1 cell viability, 24 h)
Assay type: cell-based
Details: Mus musculus, WST-1, medium with 10% FBS and DHT, read-out: PTEN-P2/GFP cell proliferation, percent of control
Method: Cells are grown in phenol red-free DMEM medium containing 10% FBS, 2 mM L-glutamine, 100 U/ml penicillin/100 μg/ml streptomycin, insulin-selenium-transferrin (5 μg/ml insulin), and DHT 10^−8M final. Androgen withdrawal is achieved by not adding DHT to the medium. Cells are maintained in a humidified incubator at 37° C. and 5% CO2. G418 (100 μg/ml) is added to maintain stable expression of H2B-GFP.
100 microliters of PTEN-P2/GFP prostate cancer cells were plated at a density of 8000 cells/well in 96-well plates (triplicates) in growing medium containing 10% Fetal Bovine Serum and DHT. The next day, increasing concentrations of a 1,4-naphthoquinone analog (diluted from 10 mM DMSO stock solutions) were added. DMSO used as solvent for all analogs, was kept constant through the 96-well plates. The control consisted of DMSO alone. The cells were subsequently incubated for 24 hours at 37° C. and 5% CO2 in normal cell growth conditions. Cell viability was assessed by adding 9 μL/well of WST-1 reagent (Clontech), which measured mitochondrial activity of live cells. […] The incubation time was 3 hours at 37° C. Optical density of the cell samples was measured at 460 nm, by using plate reader Spectra Max 250 (Molecular Devices). The drug was determined to be cytotoxic when OD values show an inverse correlation with analog concentrations. The results are shown in TABLES 3.1-3.4, FIGS. 2A-2E, and FIGS. 3A-3D.

| Compound | activity at 2 µM | activity at 3 µM | activity at 4 µM | activity at 5 µM | activity at 6 µM | activity at 7 µM | activity at 10 µM | activity at 15 µM | activity at 25 µM | activity at 1 µM | activity at 50 µM |
| --- | --- | --- | --- | --- | --- | --- | --- | --- | --- | --- | --- |
| CC(=O)NC1=C(Oc2ccc(Cl)cc2)C(=O)c2ccccc2C1=O [Analog F39, N-(3-(4-chlorophenoxy)-1,4-dioxo-1,4-dihydronaphthalen-2-yl)acetamide] | 102% | 82.2% | 70.6% | 57.5% | 41.5% | 29.4% | 14.3% | 12% | 12.7% | – | – |
| CC(=O)NC1=C(Oc2ccc(NC(C)=O)cc2)C(=O)c2ccccc2C1=O [Analog F40, N-(4-((3-acetamido-1,4-dioxo-1,4-dihydronaphthalen-2-yl)oxy)phenyl)acetamide] | 97% | 98.8% | 89.2% | 85.2% | 73.2% | 67.3% | 56.2% | 46.1% | 44.6% | – | – |
| COc1ccc(OC2=C(NC(C)=O)C(=O)c3ccccc3C2=O)cc1 [Analog F41, N-(3-(4-methoxyphenoxy)-1,4-dioxo-1,4-dihydronaphthalen-2-yl)acetamide] | 95.1% | 89.8% | 84.5% | 75% | 69.6% | 63.9% | 36.9% | 13.5% | 12.6% | – | – |
| CC(=O)NC1=C(Oc2ccc(OCc3ccccc3)cc2)C(=O)c2ccccc2C1=O [Analog F42, N-(3-(4-(benzyloxy)phenoxy)-1,4-dioxo-1,4-dihydronaphthalen-2-yl)acetamide] | 101% | 101% | 97.6% | 89.1% | 83.8% | 75.3% | 37.5% | 20.2% | 16.6% | – | – |
| CC(=O)NC1=C(Oc2cc(F)cc(F)c2)C(=O)c2ccccc2C1=O [Analog F43, N-(3-(3,5-difluorophenoxy)-1,4-dioxo-1,4-dihydronaphthalen-2-yl)acetamide] | 94.6% | 88.7% | 78.3% | 68.4% | 55.3% | 45.2% | 32.9% | 24.7% | 24.1% | – | – |
| CC(=O)NC1=C(Oc2ccc(OC3=C(NC(C)=O)C(=O)c4ccccc4C3=O)cc2)C(=O)c2ccccc2C1=O [Analog F44, N,N′-((1,4-phenylenebis(oxy))bis(1,4-dioxo-1,4-dihydronaphthalene-3,2-diyl))diacetamide] | 106% | 102% | 69% | 58.6% | 50.5% | 45.4% | 38.7% | 20.9% | 17.1% | – | – |
| COC(=O)CSC1=C(C)C(=O)c2cccc(O)c2C1=O [Analog F46, Methyl 2-((8-hydroxy-3-methyl-1,4-dioxo-1,4-dihydronaphthalen-2-yl)thio)acetate] | 90.6% | 84.9% | 75% | 66.1% | 60.6% | 54.7% | 33% | – | 13% | 95.4% | 13.6% |
| COc1cccc2c1C(=O)C=C(C)C2=O [Analog F47, 5-methoxy-2-methyl-1,4-naphthoquinone] | 104% | 104% | 107% | 105% | 105% | 106% | 109% | – | 78.8% | 105% | 11.1% |
| CC1=CC(=O)c2c(OCCCCI)cccc2C1=O [Analog F48, 5-(4-iodobutoxy)-2-methyl-1,4-naphthoquinone] | 102% | 102% | 102% | 109% | 112% | 115% | 103% | – | 11% | 103% | 10% |
| COc1ccc(OC)c2c1C(=O)C=CC2=O [Analog F52, 5,8-dimethoxy-1,4-naphthoquinone] | 108% | 112% | 113% | 111% | 106% | 93.3% | 52.1% | – | 11.2% | 106% | 11.9% |
| CCOC1=CC(=O)c2ccccc2C1=O [Analog F53, 2-ethoxy-1,4-naphthoquinone] | 91.8% | 89.9% | 93.2% | 93.7% | 92.5% | 93.4% | 94.1% | – | 28.6% | 94% | 12.9% |
| O=C1C(Br)=C(Oc2ccc(OC3=C(Br)C(=O)c4ccccc4C3=O)cc2)C(=O)c2ccccc21 [Analog F57, 3,3′-(1,4-phenylenebis(oxy))bis(2-bromonaphthalene-1,4-dione)] | 98.2% | 98% | 98.6% | 98.9% | 95.7% | 86.7% | 61.4% | 42.8% | 17.4% | – | – |
